Data on 1 compound can be found in ChEMBL document CHEMBL2074048, “Identification of a region of the ileal-type sodium/bile acid cotransporter interacting with a competitive bile acid transport inhibitor” (Biochemistry, 2002).

Experiment [1] deals with T1, Ileal sodium/bile acid cotransporter (Homo sapiens, UniProt Q12908).
T1 sequence (Q12908 whole entry): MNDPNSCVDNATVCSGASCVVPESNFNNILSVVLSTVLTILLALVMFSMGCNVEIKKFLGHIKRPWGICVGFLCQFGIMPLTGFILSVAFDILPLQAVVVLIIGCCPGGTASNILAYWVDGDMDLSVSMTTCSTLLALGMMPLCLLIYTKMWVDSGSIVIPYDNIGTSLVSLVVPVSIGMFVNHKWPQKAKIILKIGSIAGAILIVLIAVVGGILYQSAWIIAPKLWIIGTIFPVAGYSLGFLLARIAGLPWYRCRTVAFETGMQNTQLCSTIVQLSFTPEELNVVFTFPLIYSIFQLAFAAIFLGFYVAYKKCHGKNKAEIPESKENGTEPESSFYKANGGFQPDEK
Put plainly: (§1) TP_TRANSPORTER: inhibition of Taurocholate accumulation in ASBT-expressing HEK293 cells. It is filed as functional, cell-based.

The target of experiment [2] is T2, Ileal sodium/bile acid cotransporter (Mus musculus, UniProt P70172).
T2 sequence (P70172 whole entry): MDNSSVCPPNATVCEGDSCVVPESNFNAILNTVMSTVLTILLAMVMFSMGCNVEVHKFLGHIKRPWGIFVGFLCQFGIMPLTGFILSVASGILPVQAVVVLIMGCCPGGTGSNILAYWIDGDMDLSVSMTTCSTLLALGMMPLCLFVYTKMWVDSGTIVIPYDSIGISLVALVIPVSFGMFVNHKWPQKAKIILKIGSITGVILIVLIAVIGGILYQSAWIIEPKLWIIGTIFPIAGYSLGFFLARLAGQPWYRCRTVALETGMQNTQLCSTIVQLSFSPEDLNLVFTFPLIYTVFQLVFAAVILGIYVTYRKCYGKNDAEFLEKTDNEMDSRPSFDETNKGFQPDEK
The description is as §1. The format is functional, cell-based.

Consider `CCCC[C@]1(CC)CS(=O)(=O)c2ccccc2[C@@H](c2ccccc2)N1`, for which the Ki – broadly, a measure of affinity in units of concentration, obtained from inhibition or displacement – was found to be 10 µM in experiment [1] and 68 nM in experiment [2].
